Test results: patent US20160339057A1, “NOVEL COMPOSITION METHOD OF USING THE SAME FOR THE TREATMENT OF LYME DISEASE” (priority 2014, published 2016)

Assays:
[1] = tested on: biofilm of B. garinii; assay: Biofilm on extracellular matrix proteins, crystal violet staining; type: cell-based, Borrelia garinii CIP103362; conditions: 5 extracellular matrix proteins, most effective concentration
Method: (§1) Qualitative effect of the test compounds against biofilm-like colonies of B. burgdorferi and B. garinii was evaluated using commonly used and well accepted crystal violet (CV) staining method, according to protocol provided by Sapi et al. Infection and Drug Resistance 2011. Briefly, for curable effect, 1×10^7 CFU/ml from homogeneous cultures of spirochetes were inoculated in extracellular matrix proteins (i.e. matrigel, collagen type I, fibrinogen, hyaluronan, and chondroitin sulfate) coated four-well chambers and incubated for 1 week, respectively. After the 1 week of incubation, biofilm-like colonies were treated with various compounds/mixtures. For preventive effect, 1×10^7 CFU/ml from homogeneous cultures of spirochetes complemented with various compounds/mixtures were inoculated in extracellular matrix proteins (i.e. matrigel, collagen type I, fibrinogen, hyaluronan, and chondroitin sulfate) coated four-well chambers and incubated for 1 week, respectively. Control wells were treated with ethanol (i.e. 0.1-0.4 vol/vol) alone. For doxycycline, as a positive control, the final used concentration was […]. The chambers were then incubated at 33° C. for 72 h. […] The biofilm-like colonies were carefully washed three times with 1×PBS and 1 ml of methanol was added to each well to extract a dye, which was measured at 595 nm wavelength.

[2] = tested on: rounded forms of B. garinii; assay: Susceptibility of rounded forms, SYTO 9 / propidium iodide fluorescent microscopy; type: cell-based, Borrelia garinii CIP103362; conditions: most effective concentration, up to 7 days
Method: (§2) To determine what compound/mixture will have the bactericidal effect a fluorescence method was used according to Sapi et al. Infection and Drug Resistance 2011. Briefly, 2×10^6 CFU/ml of the homogenous bacterial suspension was inoculated into each sterile 1.5 ml test tightly caps screwed tubes containing 1 ml BSK-H medium, supplemented with the test compound/mixture of interest. Control cultures were treated with ethanol (i.e. 0.1-0.4 vol/vol) alone. For doxycycline, as a positive control, the final used concentration was 250 μg/m1. The tubes were then incubated at 33° C. and viability was monitored at regular intervals for up to 72 h. The whole experiment was repeated three times for each strain and each concentration. The susceptibility of spirochetes and round body forms to the test compound was then assessed after 24 h, 48 h, 72 h and 7 days by LIVE/DEAD® BacLight™ Bacterial Viability Assay using fluorescent microscopy, were the ratio of live (green) and dead (red) B. burgdorferi and B. garinii morphological forms were calculated.

[3] = tested on: biofilm of B. burgdorferi; assay: Biofilm on extracellular matrix proteins, crystal violet staining; type: cell-based, Borrelia burgdorferi B31; conditions: 5 extracellular matrix proteins, most effective concentration
Method: as §1

[4] = tested on: rounded forms of B. burgdorferi; assay: Susceptibility of rounded forms, SYTO 9 / propidium iodide fluorescent microscopy; type: cell-based, Borrelia burgdorferi B31; conditions: most effective concentration, up to 7 days
Method: as §2

[5] = tested on: spirochetes of B. burgdorferi; assay: Susceptibility of spirochetes, dark-field microscopy; type: cell-based, Borrelia burgdorferi B31; conditions: most effective concentration (doxycycline: commonly tested concentration, 250 μg/ml), up to 7 days
Method: (§3) To determine what compound/mixture will inhibit visible growth of B. burgdorferi and B. garinii, a new and accepted micro-dilution method was used according to Sapi et al. Infection and Drug Resistance 2011. Briefly, sterile 1.5 ml test tightly caps screwed tubes containing 1 ml BSK-H medium, supplemented with the test compound of interest were inoculated with 2×10^6 CFU/ml of the homogenous bacterial suspension. The tubes were then incubated at 33° C. and growth was monitored at regular intervals for up to 72 h. The whole experiment was repeated three times for each strain and each concentration. Control cultures were treated with ethanol (i.e. 0.1-0.4 vol/vol) alone. For doxycycline, the final used concentration was 250 μg/m1. Cell growth was assessed by a bacterial Petroff-Hausser counting chamber after the 0 hour, 24 hrs, 48 hrs, 72 hrs and 7 days of incubation using dark field microscopy (direct cell counting), as a standard procedure.

[6] = tested on: spirochetes of B. garinii; assay: as above; type: cell-based, Borrelia garinii CIP103362; conditions: most effective concentration (doxycycline: commonly tested concentration, 250 μg/ml), up to 7 days
Method: as §3

SMILES: C[C@H]1c2cccc(O)c2C(=O)C2=C(O)[C@]3(O)C(=O)C(C(N)=O)=C(O)[C@@H](N(C)C)[C@@H]3[C@@H](O)[C@@H]21 [doxycycline]
- biofilm eradicated (curable effect) ([1]; 3 days post-treatment): 5-40%
- biofilm formation prevented (preventive effect) ([1]; after 7 days): 40-60%
- increase of dead of rounded forms [2]: 5-10%
- rounded forms formation generated [2]: about 2 times
- biofilm eradicated (curable effect) ([3]; 3 days post-treatment): 5-40%
- biofilm formation prevented (preventive effect) ([3]; after 7 days): 40-60%
- increase of dead of rounded forms [4]: 5-10%
- rounded forms formation generated [4]: about 2 times
- decrease of amount of spiral forms [5]: 60-75%
- decrease of amount of spiral forms [6]: 60-75%
